Test results: ChEMBL document CHEMBL3259796, “Synthesis and in-vivo hypolipidemic activity of some novel substituted phenyl isoxazol phenoxy acetic acid derivatives” (Bioorg Med Chem Lett, 2014)

Assays:
[1] = Retardation factor of the compound using chloroform/methanol at 4:1 ratio; type: physicochemical
[2] = Retardation factor of the compound using ethyl acetate/n-hexane at 1:1 ratio; type: physicochemical
Rattus norvegicus [3] = experiment: Hypolipidemic activity in triton WR-1339 Wistar rat assessed as total cholesterol at 250 mg/kg, po for 7 days (reference value: 209 +/- 1.45 mg/dl); type: functional
Rattus norvegicus [4] = experiment: Hypolipidemic activity in triton WR-1339 Wistar rat assessed as low-density lipoprotein at 250 mg/kg, po for 7 days (reference value: 154 +/- 1.82 mg/dl); type: functional
Rattus norvegicus [5] = experiment: Hypolipidemic activity in triton WR-1339 Wistar rat assessed as very low-density lipoprotein at 250 mg/kg, po for 7 days (reference value: 38 +/- 1.80 mg/dl); type: functional
Rattus norvegicus [6] = experiment: Hypolipidemic activity in triton WR-1339 Wistar rat assessed as atherogenic index at 250 mg/kg, po for 7 days (reference value: 10.18 no unit); type: functional
Rattus norvegicus [7] = experiment: Hypolipidemic activity in triton WR-1339 Wistar rat assessed as increase in protection at 250 mg/kg, po for 7 days; type: functional
Rattus norvegicus [8] = experiment: Hypolipidemic activity in triton WR-1339 Wistar rat assessed as high-density lipoprotein at 250 mg/kg, po for 7 days (reference value: 17 +/- 1.70 mg/dl); type: functional
Rattus norvegicus [9] = experiment: Hypolipidemic activity in triton WR-1339 Wistar rat assessed as triglyceride at 250 mg/kg, po for 7 days (reference value: 190 +/- 1.98 mg/dl); type: functional

| Rf [1] | Rf [2] | SMILES | Activity (Rattus norvegicus [3]) | Activity (Rattus norvegicus [4]) | Activity (Rattus norvegicus [5]) | AI (Rattus norvegicus [6]) | Activity (Rattus norvegicus [7]) | Activity (Rattus norvegicus [8]) | Activity (Rattus norvegicus [9]) |
| --- | --- | --- | --- | --- | --- | --- | --- | --- | --- |
| 0.61 | – | O=C(/C=C/c1ccco1)c1ccc(O)cc1 | – | – | – | – | – | – | – |
| 0.49 | – | O=C(/C=C/c1ccccc1O)c1ccccc1 | – | – | – | – | – | – | – |
| 0.48 | – | COc1cc(/C=C/C(=O)c2ccc(O)cc2)cc(OC)c1OC | – | – | – | – | – | – | – |
| 0.6 | – | O=C(/C=C/c1ccccc1Cl)c1ccc(O)cc1 | – | – | – | – | – | – | – |
| 0.62 | – | O=C(/C=C/c1ccc(O)cc1)c1ccc(F)cc1 | – | – | – | – | – | – | – |
| 0.51 | – | COc1ccccc1/C=C/C(=O)c1ccc(O)cc1 | – | – | – | – | – | – | – |
| – | 0.57 | COc1cc(-c2cc(-c3ccccc3)on2)ccc1O | – | – | – | – | – | – | – |
| – | 0.6 | Oc1ccccc1-c1cc(-c2ccccc2)on1 | – | – | – | – | – | – | – |
| – | 0.5 | Oc1ccc(-c2cc(-c3ccc(F)cc3)on2)cc1 | – | – | – | – | – | – | – |
| – | 0.59 | COc1ccccc1-c1cc(-c2ccc(O)cc2)on1 | – | – | – | – | – | – | – |
| – | 0.63 | COc1cc(-c2cc(-c3ccc(O)cc3)on2)cc(OC)c1OC | – | – | – | – | – | – | – |
| – | 0.6 | Oc1ccc(-c2cc(-c3ccccc3Cl)no2)cc1 | – | – | – | – | – | – | – |
| – | 0.58 | Oc1ccc(-c2cc(-c3c(Cl)cccc3Cl)no2)cc1 | – | – | – | – | – | – | – |
| – | 0.61 | Oc1ccc(-c2cc(-c3ccco3)no2)cc1 | – | – | – | – | – | – | – |
| – | 0.56 | Oc1ccc(-c2cc(-c3ccccc3)no2)cc1 | – | – | – | – | – | – | – |
| – | 0.6 | Oc1ccc(-c2cc(-c3ccc(Cl)cc3)no2)cc1 | – | – | – | – | – | – | – |

| Rf [1] | Rf [2] | SMILES | Activity (Rattus norvegicus [3]) | Activity (Rattus norvegicus [4]) | Activity (Rattus norvegicus [5]) | AI (Rattus norvegicus [6]) | Activity (Rattus norvegicus [7]) | Activity (Rattus norvegicus [8]) | Activity (Rattus norvegicus [9]) |
| --- | --- | --- | --- | --- | --- | --- | --- | --- | --- |
| – | 0.56 | COc1cc(-c2cc(-c3ccccc3)on2)ccc1OCC(=O)O | 94 mg/dL | 25 mg/dL | 23 mg/dL | 1.5 | 85.27% | 46 mg/dL | 115 mg/dL |
| – | 0.52 | O=C(O)COc1ccccc1-c1cc(-c2ccccc2)on1 | 91 mg/dL | 23.3 mg/dL | 25.2 mg/dL | 1.91 | 81.24% | 42.5 mg/dL | 123.5 mg/dL |
| – | 0.52 | O=C(O)COc1ccc(-c2cc(-c3ccc(F)cc3)on2)cc1 | 81 mg/dL | 16.4 mg/dL | 21.1 mg/dL | 1.43 | 85.95% | 43.5 mg/dL | 105.5 mg/dL |
| – | 0.45 | COc1ccccc1-c1cc(-c2ccc(OCC(=O)O)cc2)on1 | 77.5 mg/dL | 10.5 mg/dL | 23.5 mg/dL | 1.64 | 83.89% | 44.5 mg/dL | 117.5 mg/dL |
| – | 0.51 | COc1cc(-c2cc(-c3ccc(OCC(=O)O)cc3)on2)cc(OC)c1OC | 82.5 mg/dL | 29 mg/dL | 25.5 mg/dL | 2.09 | 79.47% | 40.5 mg/dL | 125 mg/dL |
| – | 0.48 | O=C(O)COc1ccc(-c2cc(-c3ccccc3Cl)no2)cc1 | 148.5 mg/dL | 86.5 mg/dL | 22 mg/dL | 1.75 | 82.81% | 40 mg/dL | 110 mg/dL |
| – | 0.5 | O=C(O)COc1ccc(-c2cc(-c3c(Cl)cccc3Cl)no2)cc1 | 90 mg/dL | 22.8 mg/dL | 22.7 mg/dL | 1.55 | 84.77% | 44.5 mg/dL | 113.5 mg/dL |
| – | 0.46 | O=C(O)COc1ccc(-c2cc(-c3ccco3)no2)cc1 | 87 mg/dL | 22.4 mg/dL | 22.6 mg/dL | 1.69 | 83.4% | 42 mg/dL | 113 mg/dL |
| – | 0.56 | O=C(O)COc1ccc(-c2cc(-c3ccccc3)no2)cc1 | 88 mg/dL | 11.1 mg/dL | 26.4 mg/dL | 2.26 | 77.8% | 40.5 mg/dL | 132 mg/dL |
| – | 0.53 | O=C(O)COc1ccc(-c2cc(-c3ccc(Cl)cc3)no2)cc1 | 83.5 mg/dL | 16.2 mg/dL | 26.3 mg/dL | 2.21 | 78.29% | 41 mg/dL | 131.5 mg/dL |
| 0.54 | – | COc1cc(/C=C/C(=O)c2ccccc2)ccc1O | – | – | – | – | – | – | – |
| 0.56 | – | O=C(/C=C/c1ccc(Cl)cc1)c1ccc(O)cc1 | – | – | – | – | – | – | – |
| 0.52 | – | O=C(/C=C/c1c(Cl)cccc1Cl)c1ccc(O)cc1 | – | – | – | – | – | – | – |
| 0.53 | – | O=C(/C=C/c1ccccc1)c1ccc(O)cc1 [4'-HYDROXYCHALCONE] | – | – | – | – | – | – | – |
| – | – | CC(C)OC(=O)C(C)(C)Oc1ccc(C(=O)c2ccc(Cl)cc2)cc1 [FENOFIBRATE] | 116.5 mg/dL | 48.2 mg/dL | 23.8 mg/dL | – | 83.6% | 44.5 mg/dL | 119 mg/dL |
